Measurements taken from publication PMC10331583, “Control of fibrosis with enhanced safety via asymmetric inhibition of prolyl‐tRNA synthetase 1” (EMBO Molecular Medicine, 2023).
Values joined by “and” are separate entries in the source; they are usually repeats but may differ in a detail not shown here. Equal entries are not always repeated. Where two headings read alike, the source gives them in different places.

What was measured:
[1] = test system: TNT Quick Coupled Transcription/Translation System (luciferase synthesis); type: biochemical; conditions: for TNT-luciferase % of control: 2000 µM
[2] = CellTiter‐Glo assay (cytotoxicity); conditions: human, WI-26 VA4 cells
WI‐26 VA4 cells [3] = assay: CellTiter‐Glo assay (cytotoxicity)
WI‐26 VA4 cells [4] = assay: Puromycin incorporation assay; type: cell-based, human
Procedure, shortened: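 WI‐26 VA4 cell lysates prepared in carbonate-bicarbonate buffer with protease inhibitor; 400 ng protein coated on ELISA plates 18 h at 4°C. Puromycin incorporated into proteins detected by antibody ELISA, absorbance 450 nm with 620 nm reference; outlier values excluded based on replicates and adjacent concentrations.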

[5] = log(inhibitor) vs. response, variable slope (four parameters), concentration in nM

O[C@H]1CCCN[C@@H]1CCCn1cnc2c(Cl)c(Cl)ccc21 [DWN12088]
TNT-luciferase % of control, average ([1]; 600000 nM): 0.13 % of control
TNT-luciferase % of control ([1]; 2000000 nM, Experiment #1, replicates): 0.00107 % of control and -0.00501 % of control and -0.00597 % of control
TNT-luciferase % of control ([1]; 2000000 nM, Experiment #2, replicates): 0.0153 % of control and 0.00456 % of control and 0.00807 % of control
TNT-luciferase % of control, average ([1]; 2000000 nM): 0.00301 % of control
TNT-luciferase LogIC50 (best-fit value) [1, 5]: 4.702
IC50 ([1]; log(inhibitor) vs. response, variable slope (four parameters), unit from head concentration (nM), read-out: TNT-luciferase IC50 (best-fit value)): 50300 nM
CC50 at 72 h ([2]; CC50 (CellTiter-Glo), 72 h (Fig 5B)): 20.3 µM
CC50 at 72 h ([2]; CC50, 72 h (Fig 1B)): 20.8 µM
CC50 fold versus HF (WI‐26 VA4 cells [3]; Fig 1B): ~ 397 fold
activity at 0.01 µM (WI‐26 VA4 cells [3]; Homo sapiens, WI26VA4, read-out: CellTiter-Glo % of control, 10 nM, Experiment #1, replicates): 107%
activity at 0.01 µM (WI‐26 VA4 cells [3]; Homo sapiens, WI26VA4, read-out: CellTiter-Glo % of control, 10 nM, Experiment #2, replicates): 105%
activity at 0.03 µM (WI‐26 VA4 cells [3]; Homo sapiens, WI26VA4, read-out: CellTiter-Glo % of control, 30 nM, Experiment #1, replicates): 95.8%
activity at 0.03 µM (WI‐26 VA4 cells [3]; Homo sapiens, WI26VA4, read-out: CellTiter-Glo % of control, 30 nM, Experiment #2, replicates): 108%
activity at 0.1 µM (WI‐26 VA4 cells [3]; Homo sapiens, WI26VA4, read-out: CellTiter-Glo % of control, 100 nM, Experiment #1, replicates): 107%
activity at 0.1 µM (WI‐26 VA4 cells [3]; Homo sapiens, WI26VA4, read-out: CellTiter-Glo % of control, 100 nM, Experiment #2, replicates): 107%
activity at 0.3 µM (WI‐26 VA4 cells [3]; Homo sapiens, WI26VA4, read-out: CellTiter-Glo % of control, 300 nM, Experiment #1, replicates): 109%
activity at 0.3 µM (WI‐26 VA4 cells [3]; Homo sapiens, WI26VA4, read-out: CellTiter-Glo % of control, 300 nM, Experiment #2, replicates): 102%
activity at 1 µM (WI‐26 VA4 cells [3]; Homo sapiens, WI26VA4, read-out: CellTiter-Glo % of control, 1000 nM, Experiment #1, replicates): 106%
activity at 1 µM (WI‐26 VA4 cells [3]; Homo sapiens, WI26VA4, read-out: CellTiter-Glo % of control, 1000 nM, Experiment #2, replicates): 105%
activity at 3 µM (WI‐26 VA4 cells [3]; Homo sapiens, WI26VA4, read-out: CellTiter-Glo % of control, 3000 nM, Experiment #1, replicates): 88.2%
activity at 3 µM (WI‐26 VA4 cells [3]; Homo sapiens, WI26VA4, read-out: CellTiter-Glo % of control, 3000 nM, Experiment #2, replicates): 90.3%
activity at 10 µM (WI‐26 VA4 cells [3]; Homo sapiens, WI26VA4, read-out: CellTiter-Glo % of control, 10000 nM, Experiment #1, replicates): 71.7%
activity at 10 µM (WI‐26 VA4 cells [3]; Homo sapiens, WI26VA4, read-out: CellTiter-Glo % of control, 10000 nM, Experiment #2, replicates): 92%
activity at 30 µM (WI‐26 VA4 cells [3]; Homo sapiens, WI26VA4, read-out: CellTiter-Glo % of control, 30000 nM, Experiment #1, replicates): 34.8%
activity at 30 µM (WI‐26 VA4 cells [3]; Homo sapiens, WI26VA4, read-out: CellTiter-Glo % of control, 30000 nM, Experiment #2, replicates): 38.4%
activity at 100 µM (WI‐26 VA4 cells [3]; Homo sapiens, WI26VA4, read-out: CellTiter-Glo % of control, 100000 nM, Experiment #1, replicates): 26.4%
activity at 100 µM (WI‐26 VA4 cells [3]; Homo sapiens, WI26VA4, read-out: CellTiter-Glo % of control, 100000 nM, Experiment #2, replicates): 20.9%
activity at 0.01 µM (WI‐26 VA4 cells [3]; Homo sapiens, WI26VA4, read-out: CellTiter-Glo % of control, average, 10 nM, average): 104%
activity at 0.03 µM (WI‐26 VA4 cells [3]; Homo sapiens, WI26VA4, read-out: CellTiter-Glo % of control, average, 30 nM, average): 104%
activity at 0.1 µM (WI‐26 VA4 cells [3]; Homo sapiens, WI26VA4, read-out: CellTiter-Glo % of control, average, 100 nM, average): 109%
activity at 0.3 µM (WI‐26 VA4 cells [3]; Homo sapiens, WI26VA4, read-out: CellTiter-Glo % of control, average, 300 nM, average): 108%
activity at 1 µM (WI‐26 VA4 cells [3]; Homo sapiens, WI26VA4, read-out: CellTiter-Glo % of control, average, 1000 nM, average): 102%
activity at 3 µM (WI‐26 VA4 cells [3]; Homo sapiens, WI26VA4, read-out: CellTiter-Glo % of control, average, 3000 nM, average): 84.7%
activity at 10 µM (WI‐26 VA4 cells [3]; Homo sapiens, WI26VA4, read-out: CellTiter-Glo % of control, average, 10000 nM, average): 77.5%
activity at 30 µM (WI‐26 VA4 cells [3]; Homo sapiens, WI26VA4, read-out: CellTiter-Glo % of control, average, 30000 nM, average): 34.6%
activity at 100 µM (WI‐26 VA4 cells [3]; Homo sapiens, WI26VA4, read-out: CellTiter-Glo % of control, average, 100000 nM, average): 22.4%
activity at 300 µM (WI‐26 VA4 cells [3]; Homo sapiens, WI26VA4, read-out: CellTiter-Glo % of control, average, 300000 nM, average): 1.88%
activity at 1000 µM (WI‐26 VA4 cells [3]; Homo sapiens, WI26VA4, read-out: CellTiter-Glo % of control, average, 1000000 nM, average): 0.11%
CellTiter-Glo LogIC50 (best-fit value) (WI‐26 VA4 cells [3]; [5]): 4.308
Puromycin, % of control, single replicate (WI‐26 VA4 cells [4]; 30000 nM, 30 µM): 67.68 % of control (2×) and 67.72 % of control (2×) and 65.74 % of control (2×) and 95.99 % of control and 94.34 % of control and 94.68 % of control
Puromycin, % of control, single replicate (WI‐26 VA4 cells [4]; 300000 nM, 300 µM): 0.28 % of control (2×) and -0.36 % of control (2×) and 0.08 % of control (2×) and 0.75 % of control and 0.84 % of control and 0.22 % of control
Puromycin, % of control, single replicate (WI‐26 VA4 cells [4]; 1000000 nM, 1000 µM): -0.0139 % of control (2×) and -0.24 % of control (2×) and 0.08 % of control (2×) and 0.39 % of control (2×) and 0.49 % of control
activity at 0.3 µM (WI‐26 VA4 cells [4]; Homo sapiens, WI26VA4, read-out: Puromycin, % of control, average, 300 nM): 104%
activity at 1 µM (WI‐26 VA4 cells [4]; Homo sapiens, WI26VA4, read-out: Puromycin, % of control, average, 1000 nM): 109%
activity at 3 µM (WI‐26 VA4 cells [4]; Homo sapiens, WI26VA4, read-out: Puromycin, % of control, average, 3000 nM): 103%
activity at 30 µM (WI‐26 VA4 cells [4]; Homo sapiens, WI26VA4, read-out: Puromycin, % of control, average, 30000 nM): 76.4%
activity at 100 µM (WI‐26 VA4 cells [4]; Homo sapiens, WI26VA4, read-out: Puromycin, % of control, average, 100000 nM): 29.7%
activity at 300 µM (WI‐26 VA4 cells [4]; Homo sapiens, WI26VA4, read-out: Puromycin, % of control, average, 300000 nM): 0.2%
activity at 1000 µM (WI‐26 VA4 cells [4]; Homo sapiens, WI26VA4, read-out: Puromycin, % of control, average, 1000000 nM): 0.1%
activity at 0.3 µM (WI‐26 VA4 cells [4]; Homo sapiens, WI26VA4, read-out: Puromycin, % of control, single replicate, 300 nM): 107%
activity at 1 µM (WI‐26 VA4 cells [4]; Homo sapiens, WI26VA4, read-out: Puromycin, % of control, single replicate, 1000 nM): 107%
activity at 3 µM (WI‐26 VA4 cells [4]; Homo sapiens, WI26VA4, read-out: Puromycin, % of control, single replicate, 3000 nM): 99.5%
activity at 10 µM (WI‐26 VA4 cells [4]; Homo sapiens, WI26VA4, read-out: Puromycin, % of control, single replicate, 10000 nM): 98.3%
activity at 100 µM (WI‐26 VA4 cells [4]; Homo sapiens, WI26VA4, read-out: Puromycin, % of control, single replicate, 100000 nM): 27.4%
IC50 (WI‐26 VA4 cells [4]; Homo sapiens, WI26VA4, read-out: Puromycin, IC50 (best-fit value)): 56.8 µM
Puromycin, HillSlope (best-fit value) (WI‐26 VA4 cells [4]; log(inhibitor) vs. response, variable slope (four parameters)): -1.616
Puromycin, LogIC50 (best-fit value) (WI‐26 VA4 cells [4]; [5]): 4.754
